Three molecules from PubChem BioAssay (NCI) can be followed below.

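Five compound concentrations were applied to cells in 96-well plates for 48 hours; endpoints were derived by simple linear interpolation of the resulting dose-response curve. Abbreviation: GI50, concentration required for 50% inhibition of growth. Definition used: TGI = concentration required for complete inhibition of growth.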

What all share (experiment): NCI anticancer screen, dose series, 48 h
Assay [1] concerns HCC-2998 colon.
The subject of assay [2] is CAKI-1 renal.
The subject of assay [3] is OVCAR-5 ovarian.
Assay [4] has as its system MOLT-4 leukemia.
The subject of assay [5] is SF-539 CNS.
Assay [6] concerns MALME-3M melanoma.
The subject of assay [7] is IGROV1 ovarian.
The subject of assay [8] is A549 NSCLC.
The subject of assay [9] is NCI-H460 lung.
For assay [10], the system named is SK-OV-3 ovarian.

`COc1ccc(-c2cc(-c3cccc(NS(C)(=O)=O)c3)nc(N)c2C#N)cc1`: the GI50 is 0.185 µM in assay [1]; 0.0766 µM in assay [2]; 0.416 µM in assay [3]; 0.235 µM in [4]; 0.0478 µM in [5]; 0.0417 µM in assay [6]. The GI50 in assay [7] is 0.119 µM; in assay [8] it was 0.109 µM; in assay [9], 0.0871 µM; in assay [10], 0.0879 µM. For the same molecule, the TGI is 2.44 µM in assay [1]; over 34.4 µM in [2]; over 64.6 µM in [3]; over 100 µM in assay [4]; 0.491 µM in assay [5]; 21.8 µM in assay [6]. For the same molecule, the TGI in assay [7] was over 34.8 µM; in assay [8] it was over 93.4 µM; in assay [9], 10.8 µM; in assay [10], 1.57 µM.
On to `CCOC(=O)C1=C(Nc2ccc(Br)cc2)OC/C1=N\NC(=O)c1ccccc1O`, for which the TGI in [1] is over 100 µM; in [2], over 71.1 µM; in assay [3], over 100 µM; in [4], 35.2 µM; in assay [5], over 77.6 µM; in assay [6], over 100 µM. The TGI in assay [7] was over 100 µM; in assay [8], over 100 µM; in [9], over 100 µM; in assay [10], over 67.7 µM.
`CCOc1nccc2c1nc(-c1nonc1N)n2CC`: the GI50 in assay [1], in assay [2], in [3], in [4], in [5] and in [6] was over 25 µM each time. Further, the GI50 in [7], in [8], in assay [9] and in [10] was over 25 µM throughout. In addition, the TGI in assay [1], in assay [2], in assay [3], in assay [4], in assay [5] and in assay [6] was over 25 µM throughout. Further, the TGI in assay [7], in assay [8], in assay [9] and in assay [10] was over 25 µM in each case.
